The values that follow come from patent US20260297070A1, “CYCLIC [COMPOUND LEFT OUT] WRN INHIBITORS” (Nimbus Wadjet, Inc., priority 2023, published 2026).

In this assay the target is T1, human Werner helicase (WRN-BV08, Uniprot Q14191, amino acids 517-1235 with L1074F point mutation) (Homo sapiens, UniProt Q14191, L1074F).
T1 construct: Uniprot Q14191, amino acids 517-1235 with L1074F point mutation; TEV-cleavable 8×His (C, cleaved yes); made in house; host or cells: Sf9 insect cells (baculovirus)
T1 sequence (Q14191 with tags, fused parts or gaps L1074F limits assumed): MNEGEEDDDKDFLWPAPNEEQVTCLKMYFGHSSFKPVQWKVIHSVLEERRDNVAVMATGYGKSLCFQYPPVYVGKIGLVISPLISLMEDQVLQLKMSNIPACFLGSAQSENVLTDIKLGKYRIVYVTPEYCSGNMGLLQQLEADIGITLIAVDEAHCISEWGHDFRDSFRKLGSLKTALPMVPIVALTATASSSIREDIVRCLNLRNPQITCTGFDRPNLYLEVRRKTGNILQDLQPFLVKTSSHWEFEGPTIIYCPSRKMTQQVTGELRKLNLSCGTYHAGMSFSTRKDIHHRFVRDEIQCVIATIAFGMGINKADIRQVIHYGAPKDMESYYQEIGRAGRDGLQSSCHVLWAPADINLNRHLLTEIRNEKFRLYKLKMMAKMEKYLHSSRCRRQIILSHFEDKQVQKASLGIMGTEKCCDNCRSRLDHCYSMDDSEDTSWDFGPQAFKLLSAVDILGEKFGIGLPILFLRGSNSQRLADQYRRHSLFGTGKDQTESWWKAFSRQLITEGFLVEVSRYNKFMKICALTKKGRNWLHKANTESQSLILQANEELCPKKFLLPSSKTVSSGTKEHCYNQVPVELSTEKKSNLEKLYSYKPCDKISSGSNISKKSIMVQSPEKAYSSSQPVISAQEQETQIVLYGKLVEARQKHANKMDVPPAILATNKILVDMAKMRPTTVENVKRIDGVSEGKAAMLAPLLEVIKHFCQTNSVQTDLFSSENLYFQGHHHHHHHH
Description: WRN (BV08) ADP-Glo Assay. Format: biochemical. The following applies: 0.15 nM WRN, 5 μM ATP, 0.1 nM DNA duplex, 15 min preincubation, 60 min at 25° C., pH 7.5, 1% DMSO; read-out: ADP-Glo_hWRN_IC50. The source says:
Example 2: WRN (BV08) ADP-Glo Assay Protocol
Bovine skin gelatin (BSG), dimethyl sulfoxide (DMSO), Pluronic F-127 and Tris(2-carboxyethyl)phosphine hydrochloride solution (TCEP) were purchased from Sigma-Aldrich at the highest level of purity possible. Bicine buffer solution was purchased from Alfa Aesar and compound NSC-617145 was purchased from Tocris. DNA duplex was synthesized at BGI (Shenzhen, China) and was composed of strand 1 with the sequence 5′-[…]-3′ (SEQ ID NO.: 1) and strand 2 with the sequence 5′-[…]-3′ (SEQ ID NO.: 2). DNA strands were annealed by heating to 95° C. for 5 minutes followed by slow cooling to room temperature. Compounds in 100% DMSO (0.1 μl) were spotted into a 384-well white polystyrene Optiplate-384 (Perkin Elmer) assay plate using a LabCyte Echo 550 (Agilent). DMSO (0.1 μl) was added to columns 12, rows A-H and column 24, rows I-P for the maximum signal control. Compound NSC-617145 (0.1 μl) was added to columns 12, rows I-P and 24, rows A-H for the minimum signal control (100% inhibition). Compounds/DMSO were preincubated for 15 minutes at 25° C. with 5 uL 2×WRN (BV08), prepared as described below, in assay buffer containing 20 mM Bicine (pH=7.5), 1 mM MgCl2, 10 mM KCl, 0.1% Pluronic F-127, 0.005% BSG, 1 mM TCEP. The reaction was initiated by the addition of 5 μl 2× substrate mixture in assay buffer and incubated for 60 minutes at 25° C. The final concentrations of the assay components were 0.15 nM WRN, 5 μM ATP, and 0.1 nM DNA duplex. The final DMSO concentration was 1% and the reference compound concentration (NSC-617145) used for the minimal signal control was 20 μM. The reaction was stopped by the addition of the ADP-Glo Kit components (Promega) as directed and the relative luminescence units (RLU) were read on an Envision 2104 (Perkin Elmer).
% Inhibition Calculation:
Where RLU=relative luminescence units, sample=signal in sample well, and MIN and MAX are the respective minimum and maximum signal controls.
Four-Parameter IC50 Fit Equation:
Where top and bottom are normally allowed to float but may be fixed at 100 or 0 respectively in a 3-parameter fit. Y is the % inhibition and X is the compound concentration.
Molecular Biology and virus production. The DNA encoding human Werner helicase (Uniprot Q14191, amino acids 517-1235 with L1074F point mutation) was generated with codon-optimization for E. coli expression and subcloned into the pFastBac vector with a TEV cleavable 8×His tag (WRN-BV08). The baculovirus from the expression plasmid WRN-BV08 was generated from transfection and amplification following the manufacturer's instructions.
Sf9 cells grown in SF900II media were infected with 1:200 WRN-BV08 P2 virus and incubated for protein expression for 72 h at 27° C. The WRN protein was purified using the following protocol. The cell pellets were thawed and resuspended in buffer A (50 mM Tris, pH 7.5, 500 mM NaCl, 1 mM TCEP, 10% Glycerol) supplemented with 0.5% CHAPS, 1 mM [COMPOUND LEFT OUT], 1 μg/mL Leupeptin, 1 μg/mL Pepstatin, and the Pierce Universal Nuclease and cocktail tablet. Cleared lysates were loaded onto a Ni Sepharose™ excel column and washed with buffer A and bound protein was eluted with buffer A supplemented with 300 mM imidazole. The eluted protein was dialyzed against buffer A and digested by His-tagged TEV (1:5 ratio) overnight at 4° C. ZnCl2 was added into the sample at final 15 μM before loading onto a second Ni Sepharose™ excel column. Untagged WRN protein was eluted from the column with buffer A supplemented with 20 mM imidazole, dialyzed overnight into buffer B (50 mM Tris, pH 7.5, 1 mM TCEP, 10% Glycerol) supplemented with 150 mM NaCl and loaded onto a Heparin column. Proteins were eluted with a step gradient of buffer B supplemented with 150 mM, 200 mM, 300 mM and 500 mM NaCl. […]
On to `COc1cc(CN(C(=O)Cc2ccc(-c3ccc(F)cc3O)nc2)C2C=CS(=O)(=O)C2)ccn1` (single isomer, unassigned) [I-130], for which the IC50 is 0.5 to 5 µM. Regarding `O=C(Cc1ccc(-n2cccc2)cc1)N(Cc1nc(CC(F)(F)F)cs1)C1C=CS(=O)(=O)C1` (stereo not shown) [I-148, N-(1,1-dioxo-2,3-dihydro-1lambda6-thiophen-3-yl)-2-[4-(1H-pyrrol-1-yl)phenyl]-N-{[4-(2,2,2-trifluoroethyl)-1,3-thiazol-2-yl]methyl}acetamide], the IC50 was in the range of 0.5 to 5 µM. On to `CN(C)S(=O)(=O)c1ccc(CC(=O)N(Cc2ccncc2)C2C=CS(=O)(=O)C2)cc1` (stereo not shown) [I-388, 2-[4-(dimethylsulfamoyl)phenyl]-N-(1,1-dioxo-2,3-dihydro-1lambda6-thiophen-3-yl)-N-[(pyridin-4-yl)methyl]acetamide], for which the IC50 was > 50 µM. Turning to `CC(C)(O)c1cc(CN(C(=O)Cn2cc(-c3ccccc3)cn2)C2C=CS(=O)(=O)C2)ccn1` (stereo not shown) [I-76, N-(1,1-dioxo-2,3-dihydro-1lambda6-thiophen-3-yl)-N-{[2-(2-hydroxypropan-2-yl)pyridin-4-yl]methyl}-2-(4-phenyl-1H-pyrazol-1-yl)acetamide], the IC50 is < 0.5 µM. `COC(C(=O)N(Cc1ccnc(C(C)(C)O)c1)C1C=CS(=O)(=O)C1)c1ccc(C(F)(F)F)cc1` (stereo not shown) [I-209, N-(1,1-dioxo-2,3-dihydro-1lambda6-thiophen-3-yl)-N-{[2-(2-hydroxypropan-2-yl)pyridin-4-yl]methyl}-2-methoxy-2-[4-(trifluoromethyl)phenyl]acetamide]: the IC50 fell in the range of 0.5 to 5 µM. In the case of `COc1cc(CN(C(=O)C(OC)c2ccc(-c3ccc(F)cc3)cc2F)C2C=CS(=O)(=O)C2)ccn1` (single isomer, unassigned) [I-404, (2R*)-2-{3,4′-difluoro-[1,1′-biphenyl]-4-yl}-N-[(3R**)-1,1-dioxo-2,3-dihydro-1lambda6-thiophen-3-yl]-2-methoxy-N-[(2-methoxypyridin-4-yl)methyl]acetamide] it was > 50 µM; in that of `O=C(Cc1ccc(-n2cccc2)cc1)N(Cc1ccccc1F)C1C=CS(=O)(=O)C1` (stereo not shown) [I-257, N-(1,1-dioxo-2,3-dihydro-1lambda6-thiophen-3-yl)-N-[(2-fluorophenyl)methyl]-2-[4-(1H-pyrrol-1-yl)phenyl]acetamide], 5 to 10 µM; in that of `CC(C)(O)c1cc(CN(C(=O)Cc2ccc(-n3cccc3)cc2F)C2C=CS(=O)(=O)C2)ccn1` (single isomer, unassigned) [I-40], < 0.5 µM. Regarding `O=C(Cn1cc(-c2ccc(F)c(F)c2)cn1)N(Cc1nc(C2CC2)cs1)C1C=CS(=O)(=O)C1` (single isomer, unassigned) [I-604], the IC50 was in the range of 0.5 to 5 µM. `O=C(Cc1ccc(-n2cccc2)cc1)N(Cc1cccc2[nH]ccc12)C1C=CS(=O)(=O)C1` (stereo not shown) [I-497, N-(1,1-dioxo-2,3-dihydro-1lambda6-thiophen-3-yl)-N-[(1H-indol-4-yl)methyl]-2-[4-(1H-pyrrol-1-yl)phenyl]acetamide]: the IC50 is > 50 µM. The figure for `O=C(CN1CCC(c2ccccc2)CC1)N(Cc1ccncc1)C1C=CS(=O)(=O)C1` (stereo not shown) [I-571, N-(1,1-dioxo-2,3-dihydro-1lambda6-thiophen-3-yl)-2-(4-phenylpiperidin-1-yl)-N-[(pyridin-4-yl)methyl]acetamide] is > 50 µM; for `CC(C)(O)c1cc(CN(C(=O)Cc2ccc(S(F)(F)(F)(F)F)cc2)[C@H]2C=CS(=O)(=O)C2)ccn1` [I-230, N-[(3S)-1,1-dioxo-2,3-dihydro-1lambda6-thiophen-3-yl]-N-{[2-(2-hydroxypropan-2-yl)pyridin-4-yl]methyl}-2-[4-(pentafluoro-lambda6-sulfanyl)phenyl]acetamide] it is 0.5 to 5 µM. The figure for `O=C(Cc1ccc(-n2cccc2)cc1)N(Cc1nc2c(s1)CCCC2)C1C=CS(=O)(=O)C1` (stereo not shown) [I-154, N-(1,1-dioxo-2,3-dihydro-1lambda6-thiophen-3-yl)-2-[4-(1H-pyrrol-1-yl)phenyl]-N-[(4,5,6,7-tetrahydro-1,3-benzothiazol-2-yl)methyl]acetamide] is 0.5 to 5 µM; for `O=C(Cc1ccc(-n2cccc2)cc1F)N(Cc1ccc(Br)cc1)C1C=CS(=O)(=O)C1` (stereo not shown) [I-122, N-[(4-bromophenyl)methyl]-N-(1,1-dioxo-2,3-dihydro-1lambda6-thiophen-3-yl)-2-[2-fluoro-4-(1H-pyrrol-1-yl)phenyl]acetamide] it is 0.5 to 5 µM; for `CN(C)C(=O)c1ccc(CN(C(=O)Cc2ccc(-c3ccc(F)c(F)c3)cc2F)C2C=CS(=O)(=O)C2)cc1` (stereo not shown) [I-779, 4-{[N-(1,1-dioxo-2,3-dihydro-1lambda6-thiophen-3-yl)-2-{3,3′,4′-trifluoro-[1,1′-biphenyl]-4-yl}acetamido]methyl}-N,N-dimethylbenzamide] it is 0.5 to 5 µM.

As to `O=C(Cc1ccc(-c2cccc(F)c2F)cc1)N(Cc1ccncc1)C1C=CS(=O)(=O)C1` (stereo not shown) [I-261, 2-{2′,3′-difluoro-[1,1′-biphenyl]-4-yl}-N-(1,1-dioxo-2,3-dihydro-1lambda6-thiophen-3-yl)-N-[(pyridin-4-yl)methyl]acetamide], the IC50 fell in the range of 5 to 10 µM. As for `O=C1NC(c2ccccc2)CCN1CC(=O)N(Cc1ccncc1)C1C=CS(=O)(=O)C1` (stereo not shown) [I-819, N-(1,1-dioxo-2,3-dihydro-1lambda6-thiophen-3-yl)-2-(2-oxo-4-phenyl-1,3-diazinan-1-yl)-N-[(pyridin-4-yl)methyl]acetamide], the IC50 lay in the range of 10 to 50 µM.

Turning to `COc1cc(CN(C(=O)C(C(=O)N(C)C)c2ccc(-c3ccc(F)c(F)c3)cc2F)C2C=CS(=O)(=O)C2)ccn1` (single isomer, unassigned) [I-577, (2R**)-N-[(3R*)-1,1-dioxo-2,3-dihydro-1lambda6-thiophen-3-yl]-N-[(2-methoxypyridin-4-yl)methyl]-N′,N′-dimethyl-2-{3,3′,4′-trifluoro-[1,1′-biphenyl]-4-yl}propanediamide], the IC50 was < 0.5 µM.

As to `O=C(Cc1ccc(C(F)(F)F)cc1)N(Cc1ccncc1)C1C=CS(=O)(=O)C1` (stereo not shown) [I-254, N-(1,1-dioxo-2,3-dihydro-1lambda6-thiophen-3-yl)-N-[(pyridin-4-yl)methyl]-2-[4-(trifluoromethyl)phenyl]acetamide], the IC50 was 5 to 10 µM. The figure for `COc1cc(CN(C(=O)C(c2ccc(-c3ccc(F)c(F)c3)cc2F)n2cc(C#N)cn2)[C@@H]2C=CS(=O)(=O)C2)ccn1` (stereo partly drawn) [I-706, 2-(4-cyano-1H-pyrazol-1-yl)-N-[(3R)-1,1-dioxo-2,3-dihydro-1lambda6-thiophen-3-yl]-N-[(2-methoxypyridin-4-yl)methyl]-2-{3,3′,4′-trifluoro-[1,1′-biphenyl]-4-yl}acetamide] is 0.5 to 5 µM. `O=C(Cn1nnc2ccccc21)N(Cc1ccncc1)C1C=CS(=O)(=O)C1` (stereo not shown) [I-492, 2-(1H-1,2,3-benzotriazol-1-yl)-N-(1,1-dioxo-2,3-dihydro-1lambda6-thiophen-3-yl)-N-[(pyridin-4-yl)methyl]acetamide]: the IC50 was > 50 µM. In the case of `COc1cc(CN(C(=O)Cc2ccc(-c3ccc(F)cc3O)nc2)C2C=CS(=O)(=O)C2)ccn1` (stereo not shown) [I-194, N-(1,1-dioxido-2,3-dihydrothiophen-3-yl)-2-(6-(4-fluoro-2-hydroxyphenyl)pyridin-3-yl)-N-((2-methoxypyridin-4-yl)methyl)acetamide] it was 5 to 10 µM.
